Laboratory results from PubChem BioAssay (NCI).
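Method: 48-hour compound exposure of cells in 96-well plates, five concentrations, linear interpolation of endpoints. At the GI50, growth is halved. The concentration for full growth arrest is given as TGI.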

What was measured:
Test in all cases: DTP human tumour cell line panel, 48 h
[1] = system: SR leukemia
[2] = system: UO-31 renal
[3] = system: CCRF-CEM leukemia
[4] = system: MALME-3M melanoma
[5] = system: OVCAR-4 ovarian
[6] = system: NCI-H226 lung
[7] = system: KM12 colon
[8] = system: IGROV1 ovarian
[9] = system: HT29 colon

Compound | TGI [1] [µM] | TGI [2] [µM] | TGI [3] [µM] | TGI [4] [µM] | TGI [5] [µM] | TGI [6] [µM] | TGI [7] [µM] | TGI [8] [µM] | TGI [9] [µM] | GI50 [2] [µM] | GI50 [3] [µM] | GI50 [4] [µM] | GI50 [5] [µM] | GI50 [6] [µM] | GI50 [7] [µM] | GI50 [8] [µM] | GI50 [9] [µM]
Cc1cc(C)c(-c2noc(-c3ccc(Cl)cc3)c2C2=NCCCN2)c(C)c1 | > 100 | > 100 | 73.9 | 36.8 | > 100 | 95.3 | > 100 | > 100 | 32.5 |  |  |  |  |  |  |  | 
Clc1cccc(-c2nnc(-c3nn(-c4ccccc4)c4nc5ccccc5nc34)o2)c1 |  | > 100 | > 100 | > 100 | > 100 | > 100 | > 100 | > 100 | > 100 |  |  |  |  |  |  |  | 
O=C(/C=C\c1cccc2ccccc12)c1ccc(Cl)cc1Cl |  | > 100 | 42.1 | 65.6 | > 100 | > 100 | 31 | > 100 | 35.8 |  |  |  |  |  |  |  | 
CC1CCC2CC(=O)OC([C@@H]3C(=O)O[C@@H](C4=CCCC4)C4C(C)CCC43)C12 (some centres not stated) | > 100 | > 100 | > 100 | > 100 |  | > 100 | > 100 | > 100 | > 100 |  |  |  |  |  |  |  | 
COc1ccc(S(=O)(=O)N(CC(=O)O)c2ccccc2)cc1 |  | > 100 | > 100 | > 100 | > 100 |  | > 100 | > 100 | > 100 |  |  |  |  |  |  |  | 
Nc1c(Cl)ncnc1NCCCCCCCCCCCCNc1ncnc(Cl)c1N | 5.16 | 18.3 |  | > 100 | > 100 |  | > 100 | > 100 | 49.8 |  |  |  |  |  |  |  | 
O=C(Nc1ccc(Cl)c(Cl)c1)C(=O)C(C(=O)c1ccccc1-c1ccccc1)C1OC(=O)c2ccccc21 (configuration not stated) |  | 33.6 | 84.9 |  |  | 15.1 | 43.2 | 73.5 | > 100 |  |  |  |  |  |  |  | 
CN(/N=C/c1ccnc2ccccc12)c1c([N+](=O)[O-])cc([N+](=O)[O-])cc1[N+](=O)[O-] |  | > 100 | > 100 | 99.1 | > 100 | > 100 | > 100 | > 100 | > 100 |  |  |  |  |  |  |  | 
CN(/N=C\c1ccnc2ccccc12)c1ccc([N+](=O)[O-])cc1 |  |  | 82.5 | > 100 |  | > 100 | > 100 | > 100 | > 100 |  |  |  |  |  |  |  | 
COC(=O)[C@@]12CC(C(C)C)[C@H]3CC(C(=O)C=C1OC)[C@H]32 (some centres not stated) |  |  | > 100 | > 100 | > 100 |  | > 100 | > 100 | > 100 |  |  |  |  |  |  |  | 
COC(=O)C1=CC2C=CC(C1C(=O)OC)C1C(C(=O)OC)=C(C(=O)OC)C(C(=O)OC)=C(C(=O)OC)C21OC (configuration not stated) | > 100 | > 100 |  | > 100 | > 100 | > 100 |  | > 100 | > 100 |  |  |  |  |  |  |  | 
CC(=O)[C@H]1CCC2[C@@H]3CC=C4C[C@@H]([O-])CC[C@]4(C)C3CC[C@@]21C.CC(=O)[C@H]1CCC2[C@@H]3CC=C4C[C@@H]([O-])CC[C@]4(C)C3CC[C@@]21C.CC(=O)[CH-]C(=O)c1ccccc1.CC(=O)[CH-]C(=O)c1ccccc1.Cl.[Ti+4] (some centres not stated) |  | 79.3 | > 100 | 37.3 | > 100 | 44.9 | > 100 | 87.1 | > 100 | 28.9 | 10.6 | 16 | 62 | 16.1 | 26.4 | 25.9 | 14.2
Cc1nc2c(o1)C(=Nc1ccccc1)c1nc(C)oc1C2=Nc1ccccc1 | > 100 | 35.1 | > 100 | 41.6 |  | 53.6 |  | 52.1 | 45.5 |  |  |  |  |  |  |  | 
CNS(=O)(=O)NNS(=O)(=O)c1ccc(OC)cc1 | > 100 | > 100 | > 100 | > 100 | > 100 |  | > 100 | > 100 | > 100 |  |  |  |  |  |  |  | 
COc1cc(/C=N/N=C(\N)NO)c(Cl)cc1O |  | > 100 | > 100 | > 100 | > 100 | > 100 | > 100 | > 100 | > 100 |  |  |  |  |  |  |  | 
COC1(OC)C2(Cl)C(Cl)=C(Cl)C1(Cl)C1C2C2CC1(C(=O)O)c1ccccc12 (configuration not stated) | 42.2 | 44.7 | 27 | 32.1 | 34.6 | 52.5 |  | 69.5 | 76.3 |  |  |  |  |  |  |  | 
CN1CCN(C(=O)COc2ccc(/C=C3\CC4C5CC=C6CC(Cl)CCC6(C)C5CCC4(C)C3=O)cc2)CC1 (configuration not stated) |  | > 100 | > 100 | > 100 | > 100 | > 100 |  | > 100 |  | > 100 | 3.94 | > 100 | > 100 | > 100 |  | > 100 | 
COC1OC2COC(C)(C)OC2C(OC(C)=O)C1NC(=O)N(CCCl)N=O (configuration not stated) |  |  | > 100 | > 100 | > 100 | > 100 | > 100 | > 100 | > 100 |  |  |  |  |  |  |  | 
Clc1cccc(C2N3CCCCC3[C@@H]3c4[nH]c5ccccc5c4CCN23)c1 (some centres not stated) |  | 82 | 56.6 | 42.2 | > 100 |  |  | > 100 | 34.2 |  |  |  |  |  |  |  | 
